# Test results reported in US20140377219A1, “HIV INHIBITORS” (New york Blood Center, Inc., priority 2011, published 2014).
# Counter-ions that a name gives are not always drawn. Like-named read-outs stand apart in the source and are kept apart here.
# Tests used:
# TZM-bl cells = assay: Cytotoxicity in TZM-bl cells (XTT); format: cell-based; settings: for % toxicity at that dose (number in parenthesis), TZM-bl cells: at the dose given as CC50 bound
# Description: (§1) The cytotoxicity of small molecules in TZM-bl cells was measured by a colorimetric method using XTT (sodium 3′-(1-(phenylamino)-carbonyl)-3,4-tetrazolium-bis(4-methoxy-6-nitro)benzenesulfonic acid hydrate), a light yellowish tetrazolium dye. Briefly, 100 μl of a compound at graded concentrations was added to equal volume of cells (10^5/ml) in wells of 96-well plates followed by incubation at 37° C. for 3 days and addition of XTT (PolySciences, Inc., Warrington, Pa.).
# [1] = test system: laboratory-adapted HIV-1 IIIB strain; assay: microbe, parasite or virus in culture; settings: Human immunodeficiency virus 1, IIIB, MT2, read-out: MT-2 Cells IC50 (μM ± SD)
# Description: (§3) In brief, 1×10^4 MT-2 cells were infected with HIV-1 at 100 TCID50 (50% tissue culture infective dose) (0.01MOI) in 200 μl medium in the presence or absence of small molecules at graded concentrations and incubated overnight. The culture supernatants were then removed and replaced with fresh media. On the fourth day post-infection, 100 μl of culture supernatants were collected from each well, mixed with equal volume of 5% Triton X-100 and tested for p24 antigen by sandwich-ELISA. The percent inhibition of p24 production and IC50 values were calculated by the GraphPad Prism software (GraphPad Software Inc.).
# MT-2 cells = assay: Cytotoxicity in MT-2 cells (XTT); format: cell-based
# Description: (§2) Cytotoxicity of small molecules in MT-2 cells and PBMC was measured by the XTT ((sodium 3′-(1-(phenylamino)-carbonyl)-3,4-tetrazolium-bis(4-methoxy-6-nitro)benzene-sulfonic acid hydrate)) method. Briefly, for MT-2 cells, 100 μl of a small molecule at graded concentrations was added to an equal volume of cells (10^5 cells/ml) in 96-well plates followed by incubation at 37° C. for four days, which ran parallel with the neutralization assay in MT-2 (except medium was added instead of virus). In the case of PBMC, 5×10^5 cells/ml was used and the cytotoxicity was measured after seven days. […] The percentage cytotoxicity and the CC50 values were calculated as described above.
# [2] = test system: laboratory-adapted HIV-1 IIIB strain; settings: read-out: MT-2 Cells IC50 (μM ± SD); multi-cycle assay, MT-2 cells, HIV-1 IIIB
# Description: as §3
# [3] = Cytotoxicity in TZM-bl cells (XTT); format: cell-based; settings: human; TZM-bl cells, XTT, 3 days; read-out: TZM-bl cells CC50 (μM ± SD)
# Description: as §1
# [4] = Cytotoxicity in MT-2 cells (XTT); format: cell-based; settings: human; MT-2 cells, XTT, four days
# Description: as §2
# [5] = MT-2 cells, XTT, four days, read-out: MT-2 Cells CC50
# [6] = TZM-bl cells, XTT, 3 days, read-out: TZM-bl cells CC50 (μM ± SD)
SMILES,IC50 [1],IC50 [2],CC50 (TZM-bl cells),CC50 (MT-2 cells),CC50 at 3 days [3],CC50 at 4 days [4],other results
"CC(=O)N1CCCCC1C(NC(=O)C(=O)Nc1ccc(Cl)cc1)c1nc(C)c(CCO)s1 (stereo not drawn) [Compound 13, N^1-((1-acetylpiperidin-2-yl)(5-(2-hydroxyethyl)-4-methylthiazol-2-yl)methyl)-N^2-(4-chlorophenyl)oxalamide]",> 52 µM,,,,,,"% toxicity at that dose (number in parenthesis), TZM-bl cells (TZM-bl cells): 20%"
"CCn1cc(NC(=O)C(=O)Nc2ccc(Cl)cc2)cn1 [Compound 17, N^1-(4-chlorophenyl)-N^2-(1-ethyl-1H-pyrazol-4-yl)oxalamide]",,,,,,,CC50 (MT-2 cells; [5]): 10.7 ± 1.6 µM; melting point: 232 to 233 °C
"C[C@@H](NC(=O)C(=O)Nc1ccc(Cl)cc1)[C@H](c1ccccc1)N1CCOCC1 [Compound 19, N^1-(4-chlorophenyl)-N^2-((1S,2R)-1-morpholino-1-phenylpropan-2-yl)oxalamide]",> 24.9 µM,,,,,,
"Cc1nc(C(NC(=O)C(=O)NC2CCCCCC2)C2CCCCN2)sc1CCO (stereo not drawn) [Compound 40, N^1-cycloheptyl-N^2-((5-(2-hydroxyethyl)-4-methylthiazol-2-yl)(piperidin-2-yl)methyl)oxalamide.HCl]",,19.6 ± 4 µM,,,,,CC50 (TZM-bl cells; [6]): > 88 µM; CC50 (MT-2 cells; [5]): ~60 µM
"Cc1nc(C(NC(=O)CCC(=O)Nc2ccc(Cl)cc2)C2CCCN2)sc1CO (stereo not drawn) [Compound 41, N^1-(4-chlorophenyl)-N^4-((5-(hydroxymethyl)-4-methylthiazol-2-yl)(pyrrolidin-2-yl)methyl)succinamide.HCl]",,> 42 µM,> 85 µM,> 85 µM,,,
"O=C(CCC(=O)Nc1ccc(Cl)cc1)NCc1ccc(S(=O)(=O)N2CCOCC2)cc1 [Compound 42, N^1-(4-chlorophenyl)-N^4-(4-(morpholinosulfonyl)benzyl)succinamide]",23.9 ± 1.8 µM,,,,~30 µM,21.2 ± 1.5 µM,melting point: 208 to 209 °C (dec.)
"O=C(CCC(=O)Nc1ccc(Cl)cc1)NCCCN1CCCC(O)C1 (stereo not drawn) [Compound 43, N^1-(4-chlorophenyl)-N^4-(3-(3-hydroxypiperidin-1-yl)propyl)succinamide]",~109 µM,,,,~82 µM,~109 µM,melting point: 122 to 123 °C
"CCC(CN1CCOCC1)NC(=O)CCC(=O)Nc1ccc(Cl)cc1 (stereo not drawn) [Compound 46, N^1-(4-chlorophenyl)-N^4-(1-morpholinobutan-2-yl)succinamide]",33.2 ± 2.2 µM,,,,> 109 µM,41.9 ± 1.6 µM,
"CN1CCN(C(=O)CNC(=O)CCC(=O)Nc2ccc(Cl)cc2)CC1 [Compound 47, N^1-(4-chlorophenyl)-N^4-(2-(4-methylpiperazin-1-yl)-2-oxoethyl)succinamide .HCOOH]",,~48 µM,~36 µM,~97 µM,,,
"CC(C)c1nccn1CCCNC(=O)CCC(=O)Nc1ccc(Cl)cc1 [Compound 48, N^1-(4-chlorophenyl)-N^4-(3-(2-isopropyl-1H-imidazol-1-yl)propyl)succinamide. HCOOH]",,> 36 µM,> 95 µM,> 95 µM,,,
"Cc1nccn1CCCNC(=O)CCC(=O)Nc1ccc(Cl)cc1 [Compound 49, N^1-(4-chlorophenyl)-N^4-(3-(2-methyl-1H-imidazol-1-yl)propyl)succinamide. HCOOH]",,> 38 µM,102 µM,> 102 µM,,,
"Cc1nc2ncccn2c1CN1CCC(NC(=O)CCC(=O)Nc2ccc(Cl)cc2)CC1 [Compound 50, N^1-(4-chlorophenyl)-N^4-(1-((2-methylimidazo[1,2-a]pyrimidin-3-yl)methyl)piperidin-4-yl)succinamide]",> 33 µM,,,,> 88 µM,> 88 µM,
"Cc1nc(C(NC(=O)CCC(=O)Nc2ccc(Cl)cc2)C2CCCCN2)sc1CO.Cl (stereo not drawn) [Compound 51, N^1-(4-chlorophenyl)-N^4-((5-(hydroxymethyl)-4-methylthiazol-2-yl)(piperidin-2-yl)methyl)succinamide.HCl]",,~40 µM,,,,,"CC50 (TZM-bl cells; [6]): > 82 µM; % toxicity at that dose (number in parenthesis), TZM-bl cells (TZM-bl cells): 0%; CC50 (MT-2 cells; [5]): > 82 µM; % toxicity at that dose (number in parenthesis), MT-2 cells (MT-2 cells; at the dose given as CC50 bound): 20%"
